From PubChem BioAssay (NCI)
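Growth conditions: 96-well plates. Treatment: test compound, 48 hours, 5 concentrations. Analysis: linear interpolation between bracketing concentrations; unreached endpoints set to highest concentration. GI50 is the concentration that inhibits growth by half. TGI marks complete inhibition of growth.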

Tests used:
Assay in all cases: growth of human tumour cells (NCI), 48 h
786-0 renal = tested on: 786-0 renal
A498 renal = tested on: A498 renal
A549 NSCLC = tested on: A549 NSCLC
ACHN renal = tested on: ACHN renal
BT-549 breast = tested on: BT-549 breast
CAKI-1 renal = tested on: CAKI-1 renal
CCRF-CEM leukemia = tested on: CCRF-CEM leukemia
COLO 205 colon = tested on: COLO 205 colon
DU-145 prostate = tested on: DU-145 prostate
EKVX NSCLC = tested on: EKVX NSCLC
HCC-2998 colon = tested on: HCC-2998 colon
HCT-116 colon = tested on: HCT-116 colon
HCT-15 colon = tested on: HCT-15 colon
HOP-62 NSCLC = tested on: HOP-62 NSCLC
HOP-92 NSCLC = tested on: HOP-92 NSCLC
HS 578T breast = tested on: HS 578T breast
HT29 colon = tested on: HT29 colon
IGROV1 ovarian = tested on: IGROV1 ovarian
K-562 leukemia = tested on: K-562 leukemia
KM12 colon = tested on: KM12 colon
LOX IMVI melanoma = tested on: LOX IMVI melanoma
M14 melanoma = tested on: M14 melanoma
MALME-3M melanoma = tested on: MALME-3M melanoma
MCF7 breast = tested on: MCF7 breast
MDA-MB-231 breast = tested on: MDA-MB-231 breast
MDA-MB-435 = tested on: MDA-MB-435
MOLT-4 leukemia = tested on: MOLT-4 leukemia
NCI-H226 lung = tested on: NCI-H226 lung

O=S(=O)(NC1CC2CCC1C2)c1ccc2c(c1)C(=NO)c1cc(S(=O)(=O)NC3CC4CCC3C4)ccc1-2 (stereo not given)
GI50 (786-0 renal): 179 nM
TGI (786-0 renal): 326 nM
GI50 (A498 renal): > 100000 nM
TGI (A498 renal): > 100000 nM
GI50 (A549 NSCLC): 1830 nM
TGI (A549 NSCLC): 22400 nM
GI50 (ACHN renal): 74.2 nM
TGI (ACHN renal): 986 nM
GI50 (BT-549 breast): 1920 nM
TGI (BT-549 breast): > 100000 nM
GI50 (CAKI-1 renal): 158 nM
TGI (CAKI-1 renal): 344 nM
GI50 (CCRF-CEM leukemia): 25.7 nM
TGI (CCRF-CEM leukemia): 72.6 nM
GI50 (COLO 205 colon): 23300 nM
TGI (COLO 205 colon): > 100000 nM
GI50 (DU-145 prostate): 348 nM
TGI (DU-145 prostate): 8800 nM
GI50 (EKVX NSCLC): 52.1 nM
TGI (EKVX NSCLC): 201 nM
GI50 (HCC-2998 colon): 3750 nM
TGI (HCC-2998 colon): > 100000 nM
GI50 (HCT-116 colon): 655 nM
TGI (HCT-116 colon): > 100000 nM
GI50 (HCT-15 colon): 592 nM
TGI (HCT-15 colon): > 100000 nM
GI50 (HOP-62 NSCLC): 268 nM
TGI (HOP-62 NSCLC): 4950 nM
GI50 (HOP-92 NSCLC): 152 nM
TGI (HOP-92 NSCLC): 426 nM
GI50 (HS 578T breast): 31600 nM
TGI (HS 578T breast): > 100000 nM
GI50 (HT29 colon): 220 nM
TGI (HT29 colon): 3010 nM
GI50 (IGROV1 ovarian): 26.2 nM
TGI (IGROV1 ovarian): 132 nM
GI50 (K-562 leukemia): 444 nM
TGI (K-562 leukemia): > 100000 nM
GI50 (KM12 colon): 162 nM
GI50 (LOX IMVI melanoma): 18.2 nM
TGI (LOX IMVI melanoma): 37.1 nM
GI50 (M14 melanoma): 4420 nM
TGI (M14 melanoma): > 100000 nM
GI50 (MALME-3M melanoma): 43.8 nM
TGI (MALME-3M melanoma): 173 nM
GI50 (MCF7 breast): 510 nM
TGI (MCF7 breast): > 100000 nM
GI50 (MDA-MB-231 breast): 106 nM
TGI (MDA-MB-231 breast): 3130 nM
GI50 (MDA-MB-435): 1860 nM
TGI (MDA-MB-435): > 100000 nM
GI50 (MOLT-4 leukemia): 13300 nM
TGI (MOLT-4 leukemia): > 100000 nM
GI50 (NCI-H226 lung): 22200 nM
TGI (NCI-H226 lung): > 100000 nM
